Laboratory results from patent US4442044A, “Process for preparing monoesters and diesters of N-alkyl substituted amino methyl phosphonic acid” (priority 1983, dated 1984).

How the values were obtained:
Assay in all cases: post-emergent herbicidal activity, greenhouse
Assay type in all cases: in vivo
[1] = test system: Quackgrass; details: Table I, 4 WAT
Outline: (§1)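 Post-emergence foliar spray at tabulated application rates, using aliquots of a 1.0% stock in acetone, THF or water plus ~0.4% emulsifier, applied to 2–3-week-old greenhouse plants. Plant injury was rated relative to controls roughly two and four weeks after treatment.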

[2] = test system: Lambsquarters
Outline: as §1

[3] = test system: Downy Brome
Outline: as §1

[4] = test system: Smartweed; details: 4 WAT
Outline: as §1

[5] = test system: Morningglory
Outline: as §1

[6] = test system: Wheat; details: Table II
Outline: as §1

[7] = test system: Hemp Sesbania; details: Table II, 1.12 kg/h
Outline: as §1

[8] = test system: Canada Thistle; details: Table I, 4 WAT
Outline: as §1

[9] = test system: Sugar Beet; details: Table II
Outline: as §1

[10] = test system: Crabgrass; details: Table II
Outline: as §1

[11] = test system: Cocklebur; details: 4 WAT
Outline: as §1

[12] = test system: Panicum Spp; details: Table II
Outline: as §1

[13] = test system: Rice; details: Table II
Outline: as §1

[14] = test system: Barnyardgrass
Outline: as §1

[15] = test system: Wild Buckwheat; details: Table II
Outline: as §1

[16] = test system: Yellow Nutsedge; details: Table I, 4 WAT
Outline: as §1

[17] = test system: Johnsongrass; details: Table I, 4 WAT
Outline: as §1

[18] = test system: Velvetleaf
Outline: as §1

[19] = test system: Sorghum; details: Table II
Outline: as §1

[20] = test system: Soybean; details: Table II
Outline: as §1

## CCOC(=O)CNCP(=O)(OCCN1CCCC1)OCCN1CCCC1 [Example 24, glycine, N-[[bis[2-(1-pyrrolidinyl)ethoxy]phosphinyl]methyl]-, ethyl ester]
[1]; 5.6 kg/h
  post-emergent herbicidal activity index: 1 (25-49% control)
[1]; 11.2 kg/h
  post-emergent herbicidal activity index: 2 (50-74% control)
[2]; Table I, 4 WAT, 5.6 kg/h
  post-emergent herbicidal activity index: 3 (75-99% control)
[2]; Table I, 4 WAT, 11.2 kg/h
  post-emergent herbicidal activity index: 1 (25-49% control)
[2]; Table II, 4 WAT, 1.12 kg/h
  post-emergent herbicidal activity index: 1 (25-49% control)
[2]; Table II, 4 WAT, 5.6 kg/h
  post-emergent herbicidal activity index: 3 (75-99% control)
[3]; Table I, 4 WAT, 5.6 kg/h
  post-emergent herbicidal activity index: 0 (0-24% control)
[3]; Table I, 4 WAT, 11.2 kg/h
  post-emergent herbicidal activity index: 1 (25-49% control)
[3]; Table II, 4 WAT, 1.12 kg/h
  post-emergent herbicidal activity index: 0 (0-24% control)
[3]; Table II, 4 WAT, 5.6 kg/h
  post-emergent herbicidal activity index: 2 (50-74% control)
[4]; Table I, 5.6 kg/h
  post-emergent herbicidal activity index: 2 (50-74% control)
[4]; Table I, 11.2 kg/h
  post-emergent herbicidal activity index: 2 (50-74% control)
[4]; Table II, 1.12 kg/h
  post-emergent herbicidal activity index: 2 (50-74% control)
[4]; Table II, 5.6 kg/h
  post-emergent herbicidal activity index: 2 (50-74% control)
[5]; Table I, 4 WAT, 5.6 kg/h
  post-emergent herbicidal activity index: 1 (25-49% control)
[5]; Table I, 4 WAT, 11.2 kg/h
  post-emergent herbicidal activity index: 2 (50-74% control)
[5]; Table II, 4 WAT, 1.12 kg/h
  post-emergent herbicidal activity index: 1 (25-49% control)
[5]; Table II, 4 WAT, 5.6 kg/h
  post-emergent herbicidal activity index: 2 (50-74% control)
[6]; 4 WAT, 1.12 kg/h
  post-emergent herbicidal activity index: 0 (0-24% control)
[6]; 4 WAT, 5.6 kg/h
  post-emergent herbicidal activity index: 2 (50-74% control)
[7]; 4 WAT
  post-emergent herbicidal activity index: 1 (25-49% control)
[8]; 5.6 kg/h
  post-emergent herbicidal activity index: 1 (25-49% control)
[8]; 11.2 kg/h
  post-emergent herbicidal activity index: 1 (25-49% control)
[9]; 4 WAT, 1.12 kg/h
  post-emergent herbicidal activity index: 0 (0-24% control)
[9]; 4 WAT, 5.6 kg/h
  post-emergent herbicidal activity index: 1 (25-49% control)
[10]; 4 WAT, 1.12 kg/h
  post-emergent herbicidal activity index: 2 (50-74% control)
[10]; 4 WAT, 5.6 kg/h
  post-emergent herbicidal activity index: 4 (100% control)
[11]; Table I, 5.6 kg/h
  post-emergent herbicidal activity index: 1 (25-49% control)
[11]; Table I, 11.2 kg/h
  post-emergent herbicidal activity index: 2 (50-74% control)
[11]; Table II, 1.12 kg/h
  post-emergent herbicidal activity index: 0 (0-24% control)
[11]; Table II, 5.6 kg/h
  post-emergent herbicidal activity index: 3 (75-99% control)
[12]; 4 WAT, 1.12 kg/h
  post-emergent herbicidal activity index: 1 (25-49% control)
[12]; 4 WAT, 5.6 kg/h
  post-emergent herbicidal activity index: 4 (100% control)
[13]; 4 WAT, 1.12 kg/h
  post-emergent herbicidal activity index: 0 (0-24% control)
[13]; 4 WAT, 5.6 kg/h
  post-emergent herbicidal activity index: 2 (50-74% control)
[14]; Table I, 4 WAT, 5.6 kg/h
  post-emergent herbicidal activity index: 2 (50-74% control)
[14]; Table I, 4 WAT, 11.2 kg/h
  post-emergent herbicidal activity index: 3 (75-99% control)
[14]; Table II, 4 WAT, 1.12 kg/h
  post-emergent herbicidal activity index: 1 (25-49% control)
[14]; Table II, 4 WAT, 5.6 kg/h
  post-emergent herbicidal activity index: 3 (75-99% control)
[15]; 4 WAT, 1.12 kg/h
  post-emergent herbicidal activity index: 0 (0-24% control)
[15]; 4 WAT, 5.6 kg/h
  post-emergent herbicidal activity index: 1 (25-49% control)
[16]; 5.6 kg/h
  post-emergent herbicidal activity index: 2 (50-74% control)
[16]; 11.2 kg/h
  post-emergent herbicidal activity index: 1 (25-49% control)
[17]; 5.6 kg/h
  post-emergent herbicidal activity index: 1 (25-49% control)
[17]; 11.2 kg/h
  post-emergent herbicidal activity index: 2 (50-74% control)
[18]; Table I, 4 WAT, 5.6 kg/h
  post-emergent herbicidal activity index: 1 (25-49% control)
[18]; Table I, 4 WAT, 11.2 kg/h
  post-emergent herbicidal activity index: 1 (25-49% control)
[18]; Table II, 4 WAT, 1.12 kg/h
  post-emergent herbicidal activity index: 0 (0-24% control)
[18]; Table II, 4 WAT, 5.6 kg/h
  post-emergent herbicidal activity index: 2 (50-74% control)
[19]; 4 WAT, 1.12 kg/h
  post-emergent herbicidal activity index: 0 (0-24% control)
[19]; 4 WAT, 5.6 kg/h
  post-emergent herbicidal activity index: 2 (50-74% control)
[20]; 4 WAT, 1.12 kg/h
  post-emergent herbicidal activity index: 0 (0-24% control)
[20]; 4 WAT, 5.6 kg/h
  post-emergent herbicidal activity index: 2 (50-74% control)

## CCOC(=O)CNCP(=O)(OCC1COC(C)(C)O1)OCC1COC(C)(C)O1 (stereo not shown) [Example 22, glycine, N-[[bis[(2,2-dimethyl-1,3-dioxolan-4-yl)methoxy]phosphinyl]methyl]-, ethyl ester]
[1]; 11.2 kg/h
  post-emergent herbicidal activity index: 0 (0-24% control)
[1]; 56.0 kg/h
  post-emergent herbicidal activity index: 3 (75-99% control)
[2]; Table I, 4 WAT, 11.2 kg/h
  post-emergent herbicidal activity index: 0 (0-24% control)
[2]; Table I, 4 WAT, 56.0 kg/h
  post-emergent herbicidal activity index: 3 (75-99% control)
[2]; Table II, 2 WAT, 1.12 kg/h
  post-emergent herbicidal activity index: 1 (25-49% control)
[2]; Table II, 4 WAT, 5.6 kg/h
  post-emergent herbicidal activity index: 0 (0-24% control)
[3]; Table I, 4 WAT, 11.2 kg/h
  post-emergent herbicidal activity index: 0 (0-24% control)
[3]; Table I, 4 WAT, 56.0 kg/h
  post-emergent herbicidal activity index: 2 (50-74% control)
[3]; Table II, 2 WAT, 1.12 kg/h
  post-emergent herbicidal activity index: 0 (0-24% control)
[3]; Table II, 4 WAT, 5.6 kg/h
  post-emergent herbicidal activity index: 0 (0-24% control)
[4]; Table I, 11.2 kg/h
  post-emergent herbicidal activity index: 0 (0-24% control)
[4]; Table I, 56.0 kg/h
  post-emergent herbicidal activity index: 3 (75-99% control)
[5]; Table I, 4 WAT, 11.2 kg/h
  post-emergent herbicidal activity index: 1 (25-49% control)
[5]; Table I, 4 WAT, 56.0 kg/h
  post-emergent herbicidal activity index: 2 (50-74% control)
[5]; Table II, 2 WAT, 1.12 kg/h
  post-emergent herbicidal activity index: 0 (0-24% control)
[5]; Table II, 4 WAT, 5.6 kg/h
  post-emergent herbicidal activity index: 1 (25-49% control)
[6]; 2 WAT, 1.12 kg/h
  post-emergent herbicidal activity index: 0 (0-24% control)
[6]; 4 WAT, 5.6 kg/h
  post-emergent herbicidal activity index: 1 (25-49% control)
[7]; 2 WAT
  post-emergent herbicidal activity index: 2 (50-74% control)
[8]; 11.2 kg/h
  post-emergent herbicidal activity index: 0 (0-24% control)
[8]; 56.0 kg/h
  post-emergent herbicidal activity index: 2 (50-74% control)
[9]; 2 WAT, 1.12 kg/h
  post-emergent herbicidal activity index: 0 (0-24% control)
[9]; 4 WAT, 5.6 kg/h
  post-emergent herbicidal activity index: 0 (0-24% control)
[10]; 2 WAT, 1.12 kg/h
  post-emergent herbicidal activity index: 1 (25-49% control)
[10]; 4 WAT, 5.6 kg/h
  post-emergent herbicidal activity index: 2 (50-74% control)
[11]; Table I, 11.2 kg/h
  post-emergent herbicidal activity index: 0 (0-24% control)
[11]; Table I, 56.0 kg/h
  post-emergent herbicidal activity index: 2 (50-74% control)
[11]; Table II, 5.6 kg/h
  post-emergent herbicidal activity index: 0 (0-24% control)
[12]; 2 WAT, 1.12 kg/h
  post-emergent herbicidal activity index: 0 (0-24% control)
[12]; 4 WAT, 5.6 kg/h
  post-emergent herbicidal activity index: 3 (75-99% control)
[13]; 2 WAT, 1.12 kg/h
  post-emergent herbicidal activity index: 0 (0-24% control)
[13]; 4 WAT, 5.6 kg/h
  post-emergent herbicidal activity index: 0 (0-24% control)
[14]; Table I, 4 WAT, 11.2 kg/h
  post-emergent herbicidal activity index: 3 (75-99% control)
[14]; Table I, 4 WAT, 56.0 kg/h
  post-emergent herbicidal activity index: 3 (75-99% control)
[14]; Table II, 2 WAT, 1.12 kg/h
  post-emergent herbicidal activity index: 1 (25-49% control)
[14]; Table II, 4 WAT, 5.6 kg/h
  post-emergent herbicidal activity index: 2 (50-74% control)
[15]; 2 WAT, 1.12 kg/h
  post-emergent herbicidal activity index: 0 (0-24% control)
[15]; 4 WAT, 5.6 kg/h
  post-emergent herbicidal activity index: 2 (50-74% control)
[16]; 11.2 kg/h
  post-emergent herbicidal activity index: 0 (0-24% control)
[16]; 56.0 kg/h
  post-emergent herbicidal activity index: 2 (50-74% control)
[17]; 11.2 kg/h
  post-emergent herbicidal activity index: 0 (0-24% control)
[17]; 56.0 kg/h
  post-emergent herbicidal activity index: 1 (25-49% control)
[18]; Table I, 4 WAT, 11.2 kg/h
  post-emergent herbicidal activity index: 0 (0-24% control)
[18]; Table I, 4 WAT, 56.0 kg/h
  post-emergent herbicidal activity index: 2 (50-74% control)
[18]; Table II, 2 WAT, 1.12 kg/h
  post-emergent herbicidal activity index: 0 (0-24% control)
[18]; Table II, 4 WAT, 5.6 kg/h
  post-emergent herbicidal activity index: 1 (25-49% control)
[19]; 2 WAT, 1.12 kg/h
  post-emergent herbicidal activity index: 0 (0-24% control)
[19]; 4 WAT, 5.6 kg/h
  post-emergent herbicidal activity index: 1 (25-49% control)
[20]; 2 WAT, 1.12 kg/h
  post-emergent herbicidal activity index: 0 (0-24% control)
[20]; 4 WAT, 5.6 kg/h
  post-emergent herbicidal activity index: 0 (0-24% control)
